Assay results reported in patent publication US6762152B1, “Substituted benzoyl ketones, methods for producing them and their use as herbicides” (Bayer Aktiengesellschaft, priority 1999, dated 2004).
Where two headings read alike, the source gives them in different places.

Tests used:
[1] = logP by HPLC, reverse-phase column (C 18), acidic range; type: physicochemical
Method: Temperature: 43° C. (a) Mobile phases for the determination in the acidic range: 0.1% aqueous phosphoric acid, acetonitrile; linear gradient from 10% acetonitrile to 90% acetonitrile—the corresponding data in Table 1 are labelled^a). […] Temperature: 43° C. (a) Mobile phases for the determination in the acidic range: 0.1% aqueous phosphoric acid, acetonitrile; linear gradient from 10% acetonitrile to 90% acetonitrile—the corresponding data in Table 2 are labelled^a).

weeds [2] = experiment: Pre-emergence test, weeds; type: in vivo; settings: soil sprayed, rated after three weeks
Method: Pre-emergence Test Solvent: 5 parts by weight of acetone Emulsifier: 1 part by weight of alkylaryl polyglycol ether To produce a suitable preparation of active compound, 1 part by weight of active compound is mixed with the stated amount of solvent, the stated amount of emulsifier is added and the concentrate is diluted with water to the desired concentration. Seeds of the test plants are sown in normal soil. After about 24 hours, the soil is sprayed with the preparation of active compound such that the particuiar amount of active compound desired is applied per unit area. The concentration of the spray liquor is chosen so that the particular amount of active compound desired is applied in 1000 litres of water per hectare. After three weeks, the degree of damage to the plants is rated in % damage in comparison to the development of the untreated control. The figures denote: 0%=no effect (like untreated control) 100%=total destruction

[3] = test system: crop plants, such as, for example, maize; experiment: Pre-emergence test, crop plant tolerance; type: in vivo; settings: rated after three weeks
Text: (§1) Solvent: 5 parts by weight of acetone
(§2) Emulsifier: 1 part by weight of alkylaryl polyglycol ether
Seeds of the test plants are sown in normal soil.
(§3) After three weeks, the degree of damage to the plants is rated in % damage in comparison to the development of the untreated control.

weeds [4] = experiment: Post-emergence test, weeds; type: in vivo; settings: plants of 5 to 15 cm sprayed, rated after three weeks
Method: as §1, §2
To produce a suitable preparation of active compound, 1 part by weight of active compound is mixed with the stated amount of solvent, the stated amount of emulsifier is added and the concentrate is diluted with water to the desired concentration.
Test plants of a height of 5 to 15 cm are sprayed with the preparation of active compound such that the particular amounts of active compound desired are applied per unit area. The concentration of the spray liquor is chosen so that the particular amounts of active compound are applied in 1000 l of water/ha.
as §3
0%=no effect (like untreated control)

[5] = a) acidic range: 0.1% aqueous phosphoric acid, acetonitrile, 43° C., Table 1

Structure (SMILES) | activity against weeds (weeds [2]) | tolerated by crop plants [3] | activity against weeds (weeds [4]) | logP [1, 5] | logP [1] | other results
CCOc1nn(Cc2cc(C(F)(F)F)ccc2C(=O)C(C#N)C(=O)C2CC2)c(=O)n1C1CC1 (stereo not drawn) [Example 1, 3-cyclopropyl-2-{2-[4-(cyclopropyl-3-ethoxy-5-oxo-4,5-dihydro-1H-1,2,4-triazol-1-yl)-methyl]4-trifluoromethyl-benzoyl}-3-oxo-propanenitrile] | strong activity | tolerated well | strong activity | – | – | chromatographic logP ([1]; reverse-phase HPLC column (C 18), determined at pH=2): 3.35
CSc1nn(Cc2cc(C(F)(F)F)ccc2C(=O)C(C#N)C(=O)C2CC2)c(=O)n1C1CC1 (stereo not drawn) [Example 2] | strong activity | tolerated well | strong activity | (IA) logP = 2.92^a) | – | –
CCOc1nn(Cc2cc(C(F)(F)F)ccc2C(=O)C(C#N)C(=O)C2CC2)c(=O)n1C (stereo not drawn) [Example 3] | strong activity | tolerated well | strong activity | (IA) logP = 3.03^a) | – | –
CSc1nn(Cc2cc(Br)ccc2C(=O)C(C#N)C(=O)C2CC2)c(=O)n1C (stereo not drawn) [Example 5] | strong activity | tolerated well | strong activity | (IA) logP = 2.83^a) | – | –
CCOc1nn(Cc2cc(Br)ccc2C(=O)C(C#N)C(=O)C2CC2)c(=O)n1C (stereo not drawn) [Example 6] | strong activity | tolerated well | strong activity | (IA) logP = 2.94^a) | – | –
CN(C)c1nn(Cc2cc(F)ccc2C(=O)C(C#N)C(=O)C2CC2)c(=O)n1C (stereo not drawn) [Example 7] | – | – | – | – | (IA) logP = 2.28^a) | –
COc1nn(Cc2cc(F)ccc2C(=O)C(C#N)C(=O)C2CC2)c(=O)n1C1CC1 (stereo not drawn) [Example 8] | – | – | – | – | (IA) logP = 2.56^a) | –
CSc1nn(Cc2cc(S(C)(=O)=O)ccc2C(=O)C(C#N)C(=O)C2CC2)c(=O)n1C (stereo not drawn) [Example 9] | – | – | – | – | (IA) logP = 1.74^a) | –
Cc1nn(Cc2cc(C(F)(F)F)ccc2C(=O)C(C#N)C(=O)C2CC2)c(=O)n1C (stereo not drawn) [Example 10] | – | – | – | – | (IA) logP = 2.35^a) | –
CCOc1nn(Cc2cc(C(F)(F)F)ccc2C(=O)O)c(=O)n1C [III-2, 5-ethoxy-4-methyl-2-(2-carboxy-5-trifluoromethyl-benzyl)-2,4-dihydro-3H-1,2,4-triazol-3-one] | – | – | – | – | – | chromatographic logP ([1]; reverse-phase HPLC column (C 18); a) acidic range, starting material of formula (III)): 2.18
Cn1c(C(F)(F)F)nn(Cc2c(Cl)ccc(C(=O)O)c2Cl)c1=O [III-3, 4-methyl-5-trifluoromethyl-2-(2,6-dichloro-3-carboxy-benzyl)-2,4-dihydro-3H-1,2,4-triazol-3-one] | – | – | – | – | – | melting point: 207 °C
CCOn1c(CC)nn(Cc2cc(C(F)(F)F)ccc2C(=O)c2c(C(=O)OC)noc2C2CC2)c1=O [IV-1, (5-cyclopropyl-3-methoxycarbonyl-isoxazol-4-yl)-[2-(4-ethoxy-3-ethyl-5-oxo-4,5-dihydro-[1,2,4]-triazol-1-yl-methyl)-4-trifluoromethyl-phenyl]-methanone] | – | – | – | – | – | chromatographic logP ([1]; reverse-phase HPLC column (C 18), determined at pH=2.3, starting material of formula (IV)): 3.56
